In PubChem BioAssay AID270 (DTP/NCI, 2004):
Several values for one entry are separate records, joined by “and”; a condition that tells them apart may be missing. Equal values may be shown once. Results filed as inconclusive are left out.

Tested on: BDF1 mice, s.c. Lewis lung carcinoma, T/C %
Experiment: NCI In Vivo Anticancer Drug Screen. Data for tumor model Lewis Lung Carcinoma (subcutaneous) in B6D2F1 (BDF1) mice
Outline: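 First, mice carry a transplantable tumor. Next, groups receive either compound or vehicle. Finally, survival or tumor dimensions in the dosed animals are divided by the corresponding control figure.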

[1] = endpoint: median survival time, dose: 12.5 mg/kg/injection, schedule: Q01DX009 (ip), vehicle: other, higher = longer survival
[2] = endpoint: median survival time, dose: 25.0 mg/kg/injection, schedule: Q01DX009 (ip), vehicle: other, higher = longer survival
[3] = endpoint: median survival time, dose: 50.0 mg/kg/injection, schedule: Q01DX009 (ip), vehicle: other, higher = longer survival
[4] = endpoint: mean tumor weight, dose: 50.0 mg/kg/injection, schedule: Q01DX011 (ip), vehicle: saline, higher = larger tumour
[5] = endpoint: mean tumor weight, dose: 200.0 mg/kg/injection, schedule: Q01DX011 (ip), vehicle: saline, higher = larger tumour
[6] = endpoint: mean tumor weight, dose: 400.0 mg/kg/injection, schedule: Q01DX011 (ip), vehicle: saline, higher = larger tumour

For COc1cc(NC(=O)N(CCCl)N=O)cc(OC)c1OC, the T/C (endpoint: median survival time, dose: 3.12 mg/kg/injection, schedule: Q01DX009 (ip), vehicle: other, higher = longer survival) was 103 % of control, the T/C (endpoint: median survival time, dose: 6.25 mg/kg/injection, schedule: Q01DX009 (ip), vehicle: other, higher = longer survival) was 102 % of control and the T/C [1] was 101 % of control. For the same compound, the T/C [2] was 94 % of control and the T/C [3] was 99 % of control.
In the case of CC1=C(/C=C/C(C)=C/C=C/C(C)=C/C=O)C(C)(C)CCC1, the T/C (endpoint: median survival time, dose: 16.0 mg/kg/injection, schedule: Q01DX005 (ip), vehicle: DMSO, higher = longer survival) is reported as 153 % of control and the T/C (endpoint: median survival time, dose: 32.0 mg/kg/injection, schedule: Q01DX005 (ip), vehicle: DMSO, higher = longer survival) is reported as 151 % of control.
CCCn1cnc2c(SCc3ccccc3Cl)nc(N)nc21 was tested, and the T/C (endpoint: mean tumor weight, dose: 25.0 mg/kg/injection, schedule: Q01DX011 (ip), vehicle: other, higher = larger tumour) was 66 % of control, the T/C (endpoint: mean tumor weight, dose: 50.0 mg/kg/injection, schedule: Q01DX011 (ip), vehicle: other, higher = larger tumour) was 102 % of control and the T/C (endpoint: mean tumor weight, dose: 100.0 mg/kg/injection, schedule: Q01DX011 (ip), vehicle: other, higher = larger tumour) was 89 % of control. The T/C (endpoint: mean tumor weight, dose: 200.0 mg/kg/injection, schedule: Q01DX011 (ip), vehicle: other, higher = larger tumour) was 65 % of control.
In the case of CCOP(=O)(CC(=O)NC(CC(=O)OC)C(=O)OC)OCC (stereo not drawn), the T/C (endpoint: median survival time, dose: 50.0 mg/kg/injection, schedule: Q01DX004 (ip), vehicle: saline, higher = longer survival) is reported as 110 % of control, the T/C (endpoint: median survival time, dose: 100.0 mg/kg/injection, schedule: Q01DX004 (ip), vehicle: saline, higher = longer survival) is reported as 120 % of control and the T/C (endpoint: median survival time, dose: 200.0 mg/kg/injection, schedule: Q01DX004 (ip), vehicle: saline, higher = longer survival) is reported as 116 % of control. The T/C (endpoint: median survival time, dose: 800.0 mg/kg/injection, schedule: Q01DX004 (ip), vehicle: saline, higher = longer survival) was 124 % of control and the T/C (endpoint: median survival time, dose: 1600.0 mg/kg/injection, schedule: Q01DX004 (ip), vehicle: saline, higher = longer survival) was 124 % of control.
CCOc1ccc2nc(S(N)(=O)=O)sc2c1 was tested, and the T/C (endpoint: mean tumor weight, dose: 25.0 mg/kg/injection, schedule: Q01DX011 (ip), vehicle: carboxymethylcellulose (CMC), higher = larger tumour) was 79 % of control, the T/C (endpoint: mean tumor weight, dose: 50.0 mg/kg/injection, schedule: Q01DX011 (ip), vehicle: carboxymethylcellulose (CMC), higher = larger tumour) was 122 % of control and the T/C (endpoint: mean tumor weight, dose: 100.0 mg/kg/injection, schedule: Q01DX011 (ip), vehicle: carboxymethylcellulose (CMC), higher = larger tumour) was 38 % of control.
In the case of CCN(CC)CCNc1ccc(C)c2sc3ccccc3c(=O)c12, the T/C (endpoint: mean tumor weight, dose: 20.0 mg/kg/injection, schedule: Q01DX011 (ip), vehicle: carboxymethylcellulose (CMC), higher = larger tumour) is reported as 62 % of control and 65 % of control, the T/C (endpoint: mean tumor weight, dose: 40.0 mg/kg/injection, schedule: Q01DX011 (ip), vehicle: carboxymethylcellulose (CMC), higher = larger tumour) is reported as 51 % of control and 59 % of control and the T/C (endpoint: mean tumor weight, dose: 80.0 mg/kg/injection, schedule: Q01DX011 (ip), vehicle: carboxymethylcellulose (CMC), higher = larger tumour) is reported as 16 % of control.
COc1cc(OC)c(-c2cc(=O)c3c(OC)c(OC)c(OC)c(OC)c3o2)cc1OC was tested, and the T/C [4] was 73 % of control, the T/C (endpoint: mean tumor weight, dose: 100.0 mg/kg/injection, schedule: Q01DX011 (ip), vehicle: saline, higher = larger tumour) was 70 % of control and the T/C [5] was 97 % of control. For the same compound, the T/C [6] was 51 % of control.
In the case of O=C(O)c1cc(O)c(O)c(O)c1, the T/C [4] is reported as 111 % of control, the T/C [5] is reported as 89 % of control and the T/C [6] is reported as 99 % of control.
In the case of Cc1c2cc3c(c1O)C(=O)CC(O3)c1ccc(O)c(c1)-c1ccc(O)c(c1)C(=O)OCC1OC(O2)C(O)C(O)C1O (stereo not drawn), the T/C (endpoint: median survival time, dose: 0.13 mg/kg/injection, schedule: Q01DX009 (ip), vehicle: Klucel (hydroxypropylcellulose) (HPC), higher = longer survival) is reported as 112 % of control, the T/C (endpoint: median survival time, dose: 0.25 mg/kg/injection, schedule: Q01DX009 (ip), vehicle: Klucel (hydroxypropylcellulose) (HPC), higher = longer survival) is reported as 102 % of control and the T/C (endpoint: median survival time, dose: 0.5 mg/kg/injection, schedule: Q01DX009 (ip), vehicle: Klucel (hydroxypropylcellulose) (HPC), higher = longer survival) is reported as 100 % of control. The T/C (endpoint: median survival time, dose: 1.0 mg/kg/injection, schedule: Q01DX009 (ip), vehicle: Klucel (hydroxypropylcellulose) (HPC), higher = longer survival) was 101 % of control.
In the case of Cc1cc(C)c(NC(=O)N(CCCl)N=O)cc1C, the T/C (endpoint: mean tumor weight, dose: 25.0 mg/kg/injection, schedule: Q01DX001 (ip), vehicle: carboxymethylcellulose (CMC), higher = larger tumour) is reported as 80 % of control, the T/C (endpoint: mean tumor weight, dose: 50.0 mg/kg/injection, schedule: Q01DX001 (ip), vehicle: carboxymethylcellulose (CMC), higher = larger tumour) is reported as 82 % of control and the T/C [1] is reported as 98 % of control. For the same compound, the T/C [2] was 98 % of control and the T/C [3] was 87 % of control.
For CC(=O)c1ccc(-c2ccccc2)cc1, the T/C (endpoint: mean tumor weight, dose: 125.0 mg/kg/injection, schedule: Q01DX011 (ip), vehicle: other, higher = larger tumour) was 57 % of control, the T/C (endpoint: mean tumor weight, dose: 222.0 mg/kg/injection, schedule: Q01DX011 (ip), vehicle: other, higher = larger tumour) was 174 % of control and the T/C (endpoint: mean tumor weight, dose: 250.0 mg/kg/injection, schedule: Q01DX011 (ip), vehicle: other, higher = larger tumour) was 73 % of control. The T/C (endpoint: mean tumor weight, dose: 333.0 mg/kg/injection, schedule: Q01DX011 (ip), vehicle: other, higher = larger tumour) was 118 % of control and the T/C (endpoint: mean tumor weight, dose: 500.0 mg/kg/injection, schedule: Q01DX011 (ip), vehicle: other, higher = larger tumour) was 86 % of control.
